According to publication PMC8151276, “An Integrated Approach toward NanoBRET Tracers for Analysis of GPCR Ligand Engagement” (Molecules, 2021):

Columns and labels:
RXFP1 = biological target: T1, RXFP1 (Homo sapiens, UniProt Q9HBX9); test: NanoBRET screen HiBiT-RXFP1 in HEK293; assay type: binding; details: RXFP1
T1 construct: purchased Promega (in-house HiBiT-GPCR construct library, NanoBRET)
T1 sequence (Q9HBX9 1-757): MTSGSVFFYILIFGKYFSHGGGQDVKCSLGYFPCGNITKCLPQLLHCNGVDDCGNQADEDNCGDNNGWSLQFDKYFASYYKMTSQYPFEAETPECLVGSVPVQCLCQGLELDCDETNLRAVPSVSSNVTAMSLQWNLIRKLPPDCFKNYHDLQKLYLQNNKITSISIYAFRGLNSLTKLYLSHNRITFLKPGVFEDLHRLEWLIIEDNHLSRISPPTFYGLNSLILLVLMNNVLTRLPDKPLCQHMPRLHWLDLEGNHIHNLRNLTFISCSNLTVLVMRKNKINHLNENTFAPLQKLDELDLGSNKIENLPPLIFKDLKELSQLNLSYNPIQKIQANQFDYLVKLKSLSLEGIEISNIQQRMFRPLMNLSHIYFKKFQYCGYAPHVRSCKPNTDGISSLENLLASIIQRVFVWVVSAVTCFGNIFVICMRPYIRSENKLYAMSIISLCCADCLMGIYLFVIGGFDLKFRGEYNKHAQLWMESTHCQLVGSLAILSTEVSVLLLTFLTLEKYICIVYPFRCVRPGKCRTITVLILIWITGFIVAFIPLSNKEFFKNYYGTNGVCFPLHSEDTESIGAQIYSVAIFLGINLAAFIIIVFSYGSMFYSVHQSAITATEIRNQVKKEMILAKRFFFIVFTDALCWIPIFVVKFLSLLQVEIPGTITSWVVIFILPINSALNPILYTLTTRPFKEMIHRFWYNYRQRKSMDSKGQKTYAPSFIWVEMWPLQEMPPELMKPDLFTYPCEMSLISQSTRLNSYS
Experimental: (§1) Each tracer candidate was screened across the entire library of HiBiT-GPCR constructs using NanoBRET as the detection modality. As depicted in Figure 4A, the specificity of interactions was evaluated through decrease in BRET due to competitive displacement of a bound tracer by excess parental compound. Each tracer was analyzed for binding to each HiBiT-GPCR fusion in the absence and in the presence of competing parental compound. Briefly, HEK293 cells were transfected with HiBiT-GPCR constructs diluted into promoterless DNA to reduce expression and maximize translocation to the cell surface. Each tracer candidate was then screened at concentrations of 1 μM and 0.1 μM across cells expressing these fusions. Cells were treated for 1.5 h with tracer either alone or in the presence of 20 μM competing parental compound (i.e., control). BRET was measured upon addition of purified LgBiT and subsequent complementation with HiBiT genetically fused to a GPCR. The specificity of interactions was assessed through a decrease in BRET signal due to competitive displacement of the bound tracer. To further gauge the robustness of these interactions, the fold response over the control (i.e., BRETtracer/BRETcontrol) was calculated. We chose a 1.5-fold response, which translates to ≥7-fold signal over noise as the minimal threshold required to score an interaction as positive.
(§2) HiBiT-GPCR DNA constructs were diluted in 10 mM Tris pH 8 to a final concentration of 0.01 μg/μL, arrayed in 96-well plates and stored at −20 °C. For transfection, HEK293 cells were suspended in Opti-MEM (without phenol red) supplemented with 2% fetal bovine serum (Seradigm) and 100 units/mL penicillin–streptomycin (Gibco) at a final concentration of 220,000 cells/mL and dispensed into white 96-well plates at 90 μL/well. Subsequent transfections and screens were carried using an Agilent Bravo Automated Liquid Handling Platform. First, the 96-well HiBiT DNA arrays were diluted 25-fold in Opti-MEM (without serum or phenol red) to a final concentration of 0.0004 μg/μL and 20 μL of the diluted DNAs were transferred into new 96-well plates. Next, promoterless carrier DNA (1 μg/μL) was diluted 25-fold (0.04 μg/μL) and then dispensed into the diluted arrays at 20 μL/well. Following brief mixing, Viafect transfection reagent (Promega) diluted 16-fold into Opti-MEM was dispensed into the plates at 40 μL/well. After mixing by pipetting, plates were incubated for 10 min on the pipetting station deck. The DNA-transfection reagent complexes were then added to plates containing cells. To facilitate the screen, 10 μL of DNA-transfection reagent complexes were added in duplicates to the top 4 and bottom 4 rows, resulting in two identical 48-well arrays per plate. Plates with transfected cells were incubated for 18–20 h at 37 °C/5% CO2. A screen of each tracer across the entire library using two different concentrations requires duplicate plates of transfected cells. Depending on the number of tracers being screened, transfections can be scaled up using the same ratios. The next day, for each tracer, four 20× screening solutions in tracer dilution buffer (Promega) were prepared: two duplicates at final concentration of 20 μM and two duplicates at a final concentration of 2 μM. […] The four resulting solutions were diluted 4-fold in Opti-MEM without serum or phenol red to generate 5× solutions (5 µM and 0.5 µM tracer +/− 100 μM competing compound). To screen the library, a BioTek MultiFlo FX liquid dispenser was used to dispense 22.5 µL of tracer solution to the top 4 rows and 22.5 µL tracer + competing compound solution to the 4 bottom rows. Plates were briefly mixed on an orbital shaker and incubated for 1.5 h at room temperature. […] Plates were briefly mixed on an orbital shaker and incubated for 15 min to allow complementation.

CNR2 = biological target: T2, CNR2 (Homo sapiens, UniProt P34972); test: NanoBRET screen HiBiT-CNR2 in HEK293; assay type: binding; details: CNR2
T2 construct: purchased Promega (in-house HiBiT-GPCR construct library, NanoBRET)
Experimental: as §1, §2

T2 sequence (P34972 whole entry): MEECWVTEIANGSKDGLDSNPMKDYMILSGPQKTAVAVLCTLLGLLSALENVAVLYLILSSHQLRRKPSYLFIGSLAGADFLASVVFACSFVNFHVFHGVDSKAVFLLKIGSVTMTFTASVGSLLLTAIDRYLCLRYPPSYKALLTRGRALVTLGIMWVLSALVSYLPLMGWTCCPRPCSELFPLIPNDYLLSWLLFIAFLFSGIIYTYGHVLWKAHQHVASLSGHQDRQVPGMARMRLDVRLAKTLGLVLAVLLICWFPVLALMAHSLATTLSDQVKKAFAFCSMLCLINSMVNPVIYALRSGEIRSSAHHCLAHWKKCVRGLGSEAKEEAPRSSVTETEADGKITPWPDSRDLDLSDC

Row | SMILES | NanoBRET Fold Response (RXFP1; tracer 0.1μM) | NanoBRET Fold Response (RXFP1; tracer 1μM) | NanoBRET Fold Response (CNR2; tracer 0.1μM) | NanoBRET Fold Response (CNR2; tracer 1μM) | NanoBRET Fold Response (RXFP1; 0.1μM) | NanoBRET Fold Response (RXFP1; 1μM) | NanoBRET Fold Response (CNR2; 0.1μM) | NanoBRET Fold Response (CNR2; 1μM)
1 | Cc1cc2c(s1)Nc1ccccc1N=C2N1CCN(CCCNC(=O)CCOCCOCCOCCOCCNC(=O)CCc2ccc3n2[B-](F)(F)[N+]2=C(c4ccc[nH]4)C=CC2=C3)CC1 [Olanzapine-a-2-NB590] | 1.25 | 0.79 | 0.23 | 1.06 |  |  |  | 
2 | O=C(CCc1ccc2n1[B-](F)(F)[N+]1=C(c3ccc[nH]3)C=CC1=C2)NCc1ccc(C(=O)NCCOCCOCCNCC(O)COc2cccc3ccccc23)cc1 (stereo not drawn) [Propranolol-3-NB590] |  |  |  |  | 0.90 | 0.90 | 0.95 | 1.01
3 | O=C(CCc1ccc2n1[B-](F)(F)[N+]1=C(c3ccc[nH]3)C=CC1=C2)NCCOCCOCCNC(=O)OCCOCCN1CCN(C2=Nc3ccccc3Sc3ccccc32)CC1 [Quetiapine-a-2-NB590] | 0.53 | 1.01 | 1.07 | 1.29 |  |  |  | 
4 | Cc1nc2n(c(=O)c1CCN1CCC(c3noc4cc(F)ccc34)CC1)CCCC2OC(=O)NCCOCCOCCOCCOCCNC(=O)CCc1ccc2n1[B-](F)(F)[N+]1=C(c3ccc[nH]3)C=CC1=C2 (stereo not drawn) [Risperidone-2-NB590] | 1.26 | 0.90 | 1.04 | 1.12 |  |  |  | 
5 | CC(C)N(CC[C@H](c1ccccc1)c1cc(CCNC(=O)CCOCCOCCOCCOCCNC(=O)CCc2ccc3n2[B-](F)(F)[N+]2=C(c4ccc[nH]4)C=CC2=C3)ccc1O)C(C)C [Tolterodine-2-NB590] | 1.11 | 0.81 | 0.94 | 1.11 |  |  |  | 
6 | CC(C)N(CC[C@H](c1ccccc1)c1cc(CCNC(=O)c2ccc(CNC(=O)CCc3ccc4n3[B-](F)(F)[N+]3=C(c5ccc[nH]5)C=CC3=C4)cc2)ccc1O)C(C)C [Tolterodine-BZ-NB590] | 1.12 | 1.23 |  | 0.25 |  |  |  | 
7 | CCCn1c(=O)c2[nH]c(-c3ccc(OCC(=O)NCCNC(=O)CCOCCNC(=O)c4ccc(CNC(=O)CCc5ccc6n5[B-](F)(F)[N+]5=C(c7ccc[nH]7)C=CC5=C6)cc4)cc3)nc2n(CCC)c1=O [XAC-3-NB590] | 1.04 | 0.93 | 1.04 | 1.09 |  |  |  | 
